In patent US5242945A, “Tetronic and thiotetronic acid derivatives as phospholipase A2 inhibitors” (American Home Products Corporation, priority 1991, dated 1993):
Like-named read-outs stand apart in the source and are kept apart here.

Experiments:
[1] = biological target: T1, human synovial fluid PLA2 (Homo sapiens, UniProt P14555); experiment: in vitro isolated phospholipase A2 assay, human synovial fluid PLA2; format: biochemical; details: at 10 μM; + values given without explanation; read-out: % Inhibition HSF (human synovial fluid)
T1 construct: Purified human synovial fluid; from tissue; host or cells: human synovial fluid
T1 sequence (P14555 21-144): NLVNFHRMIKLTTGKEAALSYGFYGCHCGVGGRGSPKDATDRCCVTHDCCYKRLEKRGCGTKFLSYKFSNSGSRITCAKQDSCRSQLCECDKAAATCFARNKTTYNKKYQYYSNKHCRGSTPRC
Description: (§1) The compounds of the invention are tested in an in vitro isolated phospholipase A2 assay to determine the ability of the test compounds to inhibit the release of arachidonic acid from an arachidonic acid-containing substrate by the action of phospholipase A2 enzyme from human and non-human sources.
(§2) Into a 15 mL polypropylene tube are added the following:
(§3) ^3 H-AA E. coli substrate^1
(§4) Tris-HCl (0.5 M) pH 7.5^3
(§5) PLA2 25 Volume yielding 12%
(§6) 100 hydrolysis in 10 min.
(§7) *pre-incubate at room temperature 30 min prior to substrate addition.
(§8) ^6 Two human PLA2 enzymes are used: a) Semipurified human
(§9) platelet acid extract PLA2 (in 10 mM sodium acetate buffer, pH 4.5).
(§10) Remove protein precipitate by centrifugation at about 2200 rpm for 10
(§11) minutes. b) Purified human synovial fluid.
(§12) Incubate the 100 μL reaction mixture for 10 minutes at 37° C. in a shaking water bath. The reaction is terminated by the addition of 2 mL tetrahydrofuran, followed by vortexing. NH2 columns (100 μg/mL--Analytichem International) are conditioned with 0.5 mL tetrahydrofuran followed by 0.5 mL tetrahydrofuran/water (2 mL:0.1 mL, v/v).
(§13) The sample is loaded onto the columns and slowly drawn through them. The hydrolyzed arachidonic acid retained in the columns is eluted therefrom with 1 mL tetrahydrofuran/glacial acetic acid (2%). The arachidonic acid is transferred to scintillation vials and quantitated by β-counting analysis. A "total counts" sample is prepared by pipetting 25 μL ^3 H-arachidonate E. coli directly into a scintillation vial to which is added 1 mL tetrahydrofuran. 10 mL aquasol (scintillation cocktail) is added to all samples.

5-lipoxygenase (LTC4) = experiment: resident murine peritoneal macrophage assay, LTC4; format: cell-based, mouse (Swiss Webster)
Description: (§14) The ability of the compounds of the invention to act as inhibitors of the enzymes 5-lipoxygenase and cyclooxygenase is measured in the resident murine peritoneal macrophage assay.
(§15) Resident peritoneal macrophages are collected from female Swiss Webster mice (49 days old, 20-25 gms, Buckshire) by lavaging with 7-8 ml Hanks Balanced Salt Solution (HBSS) without Ca^++ and Mg^++ (GIBCO). The lavage fluid from several mice is pooled and centrifuged at 4° C. for 10 minutes at 400 xg.
(§16) Residual serum and cellular debris are removed from the monolayers by washing 3× with 2 ml HBSS containing Ca^++ and Mg^++. Macrophages are preincubated for 5 minutes with 1 ml serum-free M199 containing 10 μl dimethyl sulfoxide (DMSO) vehicle or test compound prior to cell activation with zymosan ([…]) or arachidonic acid (AA) (2 μM). After 2 hours, the supernatants are removed and either assayed for LTC4 and PGE2 by radioimmunoassay (RIA) directly or stored at -20° C. In all cases, results are expressed as ng metabolite/4×10^6 cells.
(§17) Raw data (dpm) may be stored directly onto an "Autostart" tape using the HP85 in room C-096. The raw data are converted to ng metabolite/4-10^6cells using the standard curve by a "RIANAL" program (HP85) or a "NONLIN" program (HP9816). Results are then expressed as percent inhibition of zymosan induced, leukotriene or prostaglandin synthesis (control) using the equation: [formula]

cyclooxygenase (PGE2) = experiment: resident murine peritoneal macrophage assay, PGE2; format: cell-based, mouse (Swiss Webster)
Description: as §14
as §15, with “xg. The cell pellet is resuspended in Medium 199 (GIBCO) with HEPES buffer containing 100 μg/ml gentamicin. Two ml of the cell suspension (4×10^6 cells) are then plated on 35 mm culture dishes (Nunc).” for “xg.”
A macrophage monolayer is established after a 1-1.5 hour incubation of the cells at 37° C. in an atmosphere of […] and 5% CO2. The monolayers are washed 2× with 2 ml HBDSS, containing Ca^++ and Mg^++ after which 2 ml Medium 199 supplemented with 10% freshly thawed heat-inactivated fetal bovine serum and 100 μg/ml gentamicin is added for an overnight incubation.
as §16, §17

human platelet PLA2 = biological target: T2, human platelet PLA2 (Homo sapiens, UniProt P14555); experiment: in vitro isolated phospholipase A2 assay, human platelet PLA2; format: biochemical; details: at 10 μM; + values given without explanation; read-out: % Inhibition HP (human platelet)
T2 construct: platelet acid extract PLA2; from tissue; host or cells: human platelets, semipurified acid extract
T2 sequence (P14555 21-144): T1 sequence (P14555 21-144)
Description: as §1, §2, §3, §4, §5, §6, §7, §8, §9, §10, §11, §12, §13

[2] = Mus musculus, Peritoneal macrophage, zymosan stimulation
[3] = Mus musculus, Peritoneal macrophage, zymosan stimulation, read-out: PGE2 zymosan % Inhibition
[4] = Mus musculus, Peritoneal macrophage, reference compounds, 95% confidence limits on next line, read-out: IC50 PGE2
[5] = zymosan stimulation, dose not given
[6] = Mus musculus, Peritoneal macrophage, zymosan stimulation, 0.2 μM

| SMILES | inhibition at 10 µM [1] | inhibition at 0.5 µM (5-lipoxygenase (LTC4); [2]) | inhibition at 0.5 µM (cyclooxygenase (PGE2); [3]) | inhibition at 10 µM (human platelet PLA2) | further results |
| --- | --- | --- | --- | --- | --- |
| CCCCCCCC[C@@H]1C[C@@H]1CCCCCCCC(=O)C1=C(O)COC1=O (relative stereo) [Example 19, (Z)-4-Hydroxy-3-(1-oxo-8-(2'-octylcyclopropyl)octanyl)-2(5H)-furanone] | 88% | 37.5% | 68.4% | 83% | – |
| CCCC[C@@H]1C[C@@H]1CCCCCCCC(=O)C1=C(O)COC1=O (relative stereo) [Example 54, 4-Hydroxy-3-[(Z)-8-(2-butylcyclopropyl)-1-oxooctyl]-2(5H)-furanone] | – | – | – | – | inhibition at 0.1 µM (5-lipoxygenase (LTC4); [2]): 59.3%; inhibition at 0.1 µM (cyclooxygenase (PGE2); [2]): 49.5% |
| CCCCCCCCCCC[C@@H]1C[C@@H]1CCCCC(=O)C1=C(O)COC1=O (relative stereo) [Example 55] | – | 64.2% | 74.3% | – | inhibition at 0.1 µM (5-lipoxygenase (LTC4); [2]): 80.3%; inhibition at 0.1 µM (cyclooxygenase (PGE2); [2]): 39.2% |
| CCCCCC#CCC#CCC#CCC#CCCCC(=O)O [ETYA, reference compound] | – | – | – | – | IC50 (cyclooxygenase (PGE2); [4]): 1260 nM |
| O=C(CCCCCCCCOc1ccc(Cl)cc1)C1=C(O)COC1=O [Example 29, 3-[9-(4-Chlorophenoxy)-1-oxononyl]-4-hydroxy-2(5H)-furanone] | 33.6% | – | – | 20.6% | – |
| CCCCCCNC(=O)OCC(CCC(=O)C1=C(O)COC1=O)OC(=O)NCCCCCC (stereo not shown) [Example 30, Hexylcarbamic acid 5-(2,5-dihydro-4-hydroxy-2-oxo-3-furanyl)-5-oxo-1,2-pentanediyl ester] | 21% | – | – | 37.4% | inhibition at 1 µM (5-lipoxygenase (LTC4); Mus musculus, Peritoneal macrophage, zymosan stimulation, 1.0 μM): 41.5%; inhibition at 1 µM (cyclooxygenase (PGE2); Mus musculus, Peritoneal macrophage, zymosan stimulation, 1.0 μM, read-out: PGE2 zymosan % Inhibition): 45.8% |
| CCCCCCCCCCCCNC(=O)OCC(CCC(=O)C1=C(O)COC1=O)OC(=O)NCCCCCCCCCCCC (stereo not shown) [Example 31, Dodecylcarbamic acid 5-(2,5-dihydro-4-hydroxy-2-oxo-3-furanyl)-5-oxo-1,2-pentanediyl ester] | 34.5% | – | – | 33.5% | – |
| CCCCCCCCCCCCNC(=O)OCC(CCC(=O)O)OC(=O)NCCCCCCCCCCCC (stereo not shown) [Example 31A, 4,5-Bis[[(Dodecylamino)carbonyl]oxy]pentanoic acid] | 43.2% | – | – | 47.7% | – |
| O=C(CCCCCOc1ccc(OCc2ccc(Cl)cc2)cc1)C1=C(O)COC1=O [Example 32, 4-Hydroxy-3-[6-[4-[(4-chlorophenyl)methoxyphenoxy]]1-oxohexyl]-2(5H)-furanone] | 15.1% | – | – | 31.6% | – |
| CCCCCCOc1ccc(OCCCCCC(=O)C2=C(O)COC2=O)cc1 [Example 33, 4-Hydroxy-3-[6-[4-(hexyloxy)phenoxy]-1-oxohexyl]-2(5H)-furanone] | 10% | – | – | 37.1% | – |
| CCCCCCCC/C=C/CCCCCCCC(=O)C1=C(O)COC1=O [Example 36, 4-Hydroxy-3-((E)-1-oxo-9-octadecenyl)-2(5H)-furanone] | 10.3% | – | – | 25.4% | – |
| CCCCCCCc1ccc(OCCCCCC(=O)C2=C(O)COC2=O)cc1 [Example 37, 3-[6-(4-Heptylphenoxy)-1-oxohexyl]-4-hydroxy-2(5H)-furanone] | 35.7% | – | – | 22.5% | – |
| CC(C)(C)CC(C)(C)c1ccc(OCCCCCC(=O)C2=C(O)COC2=O)cc1 [Example 39] | 20.3% | – | – | 24.4% | – |
| CCCCCCCC/C=C\CCCCCCCCNC(=O)OC(CCC(=O)O)COC/C=C(\C)CCC=C(C)C (stereo not shown) [Example 40A, 5-[((E)-3,7-Dimethyl-2,6-octadienyl)oxy]-4-[[((Z)-9-octadecenylamino)carbonyl]oxy]pentanoic acid] | 74.2% | – | – | 87.7% | – |
| CCCCCCCC/C=C\CCCCCCCCNC(=O)OC(CCC(=O)C1=C(O)COC1=O)COC/C=C(\C)CCC=C(C)C (stereo not shown) [Example 40] | 91% | – | – | 96.5% | IC50 (5-lipoxygenase (LTC4); Mus musculus, Peritoneal macrophage, zymosan stimulation, read-out: LTC4 zymosan IC50): 800 nM; LTC4 zymosan % Inhibition (5-lipoxygenase (LTC4); [5]): 87%; IC50 (cyclooxygenase (PGE2); Mus musculus, Peritoneal macrophage, zymosan stimulation, read-out: PGE2 zymosan IC50): 800 nM; PGE2 zymosan % Inhibition (cyclooxygenase (PGE2); [5]): 37% |
| O=C(CCCCCCCCCc1ccc(Cl)cc1)C1=C(O)COC1=O [Example 41, 4-Hydroxy-3-[10-(4-chlorophenyl)-1-oxodecyl]-2(5H)-furanone] | 13% | 90% | 97% | 12% | inhibition at 0.1 µM (5-lipoxygenase (LTC4); [2]): 61%; inhibition at 0.1 µM (cyclooxygenase (PGE2); [2]): 29% |
| O=C(CCCCCCCCCc1ccc(Cl)c(Cl)c1)C1=C(O)COC1=O [Example 42, 4-Hydroxy-3-[10-(3,4-dichlorophenyl)-1-oxodecyl]-2(5H)-furanone] | 22% | 70% | 97% | 6.6% | inhibition at 0.1 µM (5-lipoxygenase (LTC4); [2]): 58%; inhibition at 0.1 µM (cyclooxygenase (PGE2); [2]): -8% |
| CC(C)(C)c1ccc(CCCCCCCCCC(=O)C2=C(O)COC2=O)cc1 [Example 43, 4-Hydroxy-3-[10-[4-(1,1-dimethylethyl)phenyl]1-oxodecyl]-2(5H)-furanone] | 44.4% | 96% | 92% | 29.7% | inhibition at 0.1 µM (5-lipoxygenase (LTC4); [2]): 71%; inhibition at 0.1 µM (cyclooxygenase (PGE2); [2]): 54% |
| O=C(CCCCCCCCCc1ccc(Br)cc1)C1=C(O)COC1=O [Example 44, 4-Hydroxy-3-[10-(4-bromophenyl)-1-oxodecyl]-2(5H)-furanone] | 37% | 94% | 88% | 16.1% | inhibition at 0.1 µM (5-lipoxygenase (LTC4); [2]): 58%; inhibition at 0.1 µM (cyclooxygenase (PGE2); [2]): -20% |
| O=C(CCCCCCCCCc1ccc(C(F)(F)F)cc1)C1=C(O)COC1=O [Example 45, 4-Hydroxy-3[10-(4-trifluoromethyl)phenyl]-2(5H)-furanone] | 55.6% | – | – | 63% | inhibition at 0.2 µM (5-lipoxygenase (LTC4); [6]): 34.5%; inhibition at 0.2 µM (cyclooxygenase (PGE2); [6]): 45% |
| O=C(CCCCOc1ccc(Cl)cc1)C1=C(O)CSC1=O [Example 49, 4-Hydroxy-3-[5-(4-chlorophenoxy)-1-oxopentyl]-2(5H)-thiophenone] | 6.7% | -19.7% | -11.8% | 1.7% | – |
| CC(Cc1ccc(O)c(O)c1)C(C)Cc1ccc(O)c(O)c1 (stereo not shown) [NDGA, reference compound] | – | – | – | – | IC50 (5-lipoxygenase (LTC4); Mus musculus, Peritoneal macrophage, reference compounds, 95% confidence limits on next line, read-out: IC50 LTC4): […]; IC50 (cyclooxygenase (PGE2); [4]): 2150 nM |
